Experimental data reported in patent US20250144067A1, “PERSONALIZED STARVATION THERAPY FOR CANCER” (Faeth Therapeutics, Inc., priority 2021, published 2025).
Counter-ions that a name gives are not always drawn. Like-named read-outs stand apart in the source and are kept apart here.

Assays:
[1] = tested on: NCI-H292 lung cancer cells; test: FDA drug screening, complete media vs cholesterol-free media without statin (TABLE 1); type: cell-based, human
[2] = tested on: NCI-H292 lung cancer cells; test: FDA drug screening, complete media vs cholesterol-free media with simvastatin (TABLE 2); type: cell-based, human
[3] = NCI-H292 cells, cholesterol-free media without statin
[4] = complete vs cholesterol-free media, greater than 0 enhanced anti-cancer activity, about 0 neutral, below 0 antagonists
[5] = NCI-H292 cells, FDA drug library screen, cholesterol-free media with simvastatin 0.04 μM
[6] = NCI-H292 cells, FDA drug library screen, complete media
[7] = complete media vs cholesterol-free media + simvastatin (0.04 μM), >0 enhanced anti-cancer activity, about 0 neutral, <0 antagonist
[8] = NCI-H292 cells, cholesterol-free media without statin, FDA drug library screen
[9] = NCI-H292 cells, complete media, FDA drug library screen
[10] = complete vs cholesterol-free media, >0 enhanced anti-cancer activity, about 0 neutral, <0 antagonist
[11] = NCI-H292 cells, FDA library drug in cholesterol-free media with simvastatin 0.04 μM
[12] = complete media minus cholesterol-free media + simvastatin, >0 enhanced anti-cancer activity, about 0 neutral, <0 antagonist
[13] = NCI-H292 cells, cholesterol-free media with simvastatin 0.04 μM, cell growth value in FDA drug screen
[14] = NCI-H292 cells, complete media, cell growth value in FDA drug screen
[15] = Complete minus Cholesterol-free, […]
[16] = NCI-H292 cells in cholesterol-free media without statin
[17] = NCI-H292 cells in complete media
[18] = Complete minus Cholesterol-free, greater than 0 enhanced anti-cancer activity, about 0 neutral, below 0 antagonists
[19] = NCI-H292 cells, FDA library drug in complete media
[20] = complete media vs cholesterol-free media + simvastatin (0.04 μM), […]
[21] = NCI-H292 cells, drug in cholesterol-free media with simvastatin 0.04 μM
[22] = NCI-H292 cells, drug in complete media
[23] = Complete minus Cholesterol-free, >0 enhanced anti-cancer activity, about 0 neutral, <0 antagonist
[24] = NCI-H292 cells, FDA drug library screen, cholesterol-free media without statin
[25] = NCI-H292 cells, cholesterol-free media with simvastatin 0.04 μM, FDA drug library screen (TABLE 2)
[26] = NCI-H292 cells, complete media, FDA drug library screen (TABLE 2)

Prucalopride (succinate)
Cholesterol-free [1, 3]: 1.329
Complete ([1]; NCI-H292 cells, complete media): 0.905
Difference [1, 4]: −0.42
Cholesterol-free media + simvastatin (0.04 μM) [2, 5]: 1.172
Complete Media [2, 6]: 1.048
Difference [2, 7]: −0.12

Camostat (mesylate)
Cholesterol-free [1, 8]: 0.6104
Complete [1, 9]: 0.9828
Difference [1, 10]: 0.37
Cholesterol-free media + simvastatin (0.04 μM) [2, 11]: 1.328
Difference [2, 7]: −0.30

Toceranib (phosphate)
Cholesterol-free [1, 3]: 1.278
Complete ([1]; NCI-H292 cells, complete media): 0.9469
Difference [1, 4]: −0.33
Cholesterol-free media + simvastatin (0.04 μM) [2, 5]: 0.9001
Difference [2, 12]: 0.14

NCC(CC(=O)O)c1ccc(Cl)cc1 (stereo not shown) [Baclofen]
Cholesterol-free [1, 8]: 0.5541
Complete [1, 9]: 1.886
Difference [1, 10]: 1.33
Cholesterol-free media + simvastatin (0.04 μM) [2, 13]: 0.9225
Complete Media [2, 14]: 1.02
Difference [2, 12]: 0.10

Solifenacin (Succinate)
Cholesterol-free [1]: 1.612
Complete [1]: 1.244
Difference [1]: −0.37
Cholesterol-free media + simvastatin (0.04 μM) [2]: 0.8847
Complete Media [2]: 0.7655
Difference [2]: −0.12

OC[C@H]1NC[C@H](O)[C@@H](O)[C@H]1O [Migalastat (hydrochloride)]
Difference [1, 15]: −0.53
Cholesterol-free [1, 16]: 1.45
Complete [1, 17]: 0.9162
Cholesterol-free media + simvastatin (0.04 μM) ([2]; NCI-H292 cells, cholesterol-free media with simvastatin 0.04 μM, […]): 0.7275
Complete Media ([2]; NCI-H292 cells, complete media, […]): 0.7465
Difference ([2]; complete media minus cholesterol-free media + simvastatin, […]): 0.02

O=C(O)CCCCCCCC(=O)O [Azelaic acid]
Difference [1, 18]: −0.60
Cholesterol-free [1, 16]: 1.702
Complete [1, 17]: 1.104
Cholesterol-free media + simvastatin (0.04 μM) [2, 11]: 1.245
Complete Media [2, 19]: 0.8813
Difference [2, 7]: −0.36

Cc1nnc(SCC2=C(C(=O)[O-])N3C(=O)[C@@H](NC(=O)Cn4cnnn4)[C@H]3SC2)s1.[Na+] [Cefazolin (sodium)]
Difference [1, 18]: −0.79
Cholesterol-free [1, 16]: 1.776
Complete [1, 17]: 0.9866
Cholesterol-free media + simvastatin (0.04 μM) [2, 11]: 1.378
Complete Media [2, 19]: 1.076
Difference [2, 7]: −0.30

CC(=O)OCC(=O)NCCCOc1cccc(CN2CCCCC2)c1.Cl [Roxatidine (Acetate Hydrochloride)]
Cholesterol-free [1, 3]: 1.511
Complete ([1]; NCI-H292 cells, complete media): 1.141
Difference [1, 4]: −0.37
Cholesterol-free media + simvastatin (0.04 μM) [2, 5]: 1.117
Complete Media [2, 6]: 1.004
Difference [2, 7]: −0.11

NC[C@H](CC(=O)O)c1ccc(Cl)cc1 [(R)-Baclofen]
Difference [1, 15]: −0.91
Cholesterol-free [1, 16]: 2.052
Complete [1, 17]: 1.14
Cholesterol-free media + simvastatin (0.04 μM) [2, 5]: 0.9854
Complete Media [2, 6]: 0.8585
Difference [2, 20]: −0.13

C[C@H](C(=O)O)c1cccc(C(=O)c2ccccc2)c1 [S-(+)-Ketoprofen]
Cholesterol-free [1, 3]: 1.312
Complete ([1]; NCI-H292 cells, complete media): 0.984
Difference [1, 4]: −0.33
Cholesterol-free media + simvastatin (0.04 μM) [2, 21]: 0.9554
Complete Media [2, 22]: 0.7437
Difference [2, 7]: −0.21

CCOC(=O)C1=C(C)NC(C)=C(C(=O)OC)C1c1cccc(Cl)c1Cl (stereo not shown) [Felodipine]
Difference [1, 23]: −0.19
Cholesterol-free [1, 3]: 1.202
Complete ([1]; NCI-H292 cells, complete media): 1.01
Cholesterol-free media + simvastatin (0.04 μM) [2, 21]: 1.148
Complete Media [2, 22]: 0.9051
Difference [2, 7]: −0.24

COc1cc2c(Nc3ccc(Br)cc3F)ncnc2cc1OCC1CCN(C)CC1 [Vandetanib]
Cholesterol-free [1, 8]: 0.1902
Complete [1, 9]: 0.3633
Difference [1, 10]: 0.17
Cholesterol-free media + simvastatin (0.04 μM) [2, 5]: 0.4174
Complete Media [2, 6]: 0.7391
Difference [2, 12]: 0.32

C=C1CCN([C@H](C)[C@](O)(Cn2cncn2)c2ccc(F)cc2F)CC1 [Efinaconazole]
Cholesterol-free [1, 3]: 1.307
Complete ([1]; NCI-H292 cells, complete media): 0.8534
Difference [1, 4]: −0.45
Cholesterol-free media + simvastatin (0.04 μM) [2, 5]: 0.5953
Complete Media [2, 6]: 1.082
Difference [2, 12]: 0.49

Cl.N=C(N)NCCC[C@H](N)C(=O)O [L-Arginine (hydrochloride)]
Difference [1, 15]: −0.16
Cholesterol-free [1, 24]: 1.414
Complete [1, 6]: 1.256
Cholesterol-free media + simvastatin (0.04 μM) [2, 25]: 0.9293
Complete Media [2, 26]: 0.9241
Difference ([2]; complete media minus cholesterol-free media + simvastatin (0.04 μM), […]): −0.01

CCCc1nc(C)c2c(=O)[nH]c(-c3cc(S(=O)(=O)N4CCN(CC)CC4)ccc3OCC)nn12 [Vardenafil (hydrochloride)]
Cholesterol-free [1, 3]: 1.352
Complete ([1]; NCI-H292 cells, complete media): 0.985
Difference [1, 4]: −0.37
Cholesterol-free media + simvastatin (0.04 μM) [2, 13]: 1.201
Complete Media [2, 14]: 1.248
Difference [2, 12]: 0.05

CC(C)Cn1cnc2c(N)nc3ccccc3c21 [Imiquimod]
Cholesterol-free [1]: 0.6962
Complete [1]: 1.326
Difference [1]: 0.63
Cholesterol-free media + simvastatin (0.04 μM) [2]: 1.141
Complete Media [2]: 0.8713
Difference [2]: −0.27

CC(=O)Oc1ccc(C(c2ccc(OC(C)=O)cc2)c2ccccn2)cc1 [Bisacodyl]
Difference [1, 23]: −0.04
Cholesterol-free [1, 8]: 0.799
Complete [1, 9]: 0.7553
Cholesterol-free media + simvastatin (0.04 μM) [2, 25]: 0.934
Complete Media [2, 26]: 0.9483
Difference ([2]; complete media minus cholesterol-free media + simvastatin (0.04 μM), >0 enhanced anti-cancer activity, about 0 neutral, <0 antagonist): 0.01

CCN(CC)CC#CCOC(=O)C(O)(c1ccccc1)C1CCCCC1 (stereo not shown) [Oxybutynin]
Difference ([1]; Complete minus Cholesterol-free, greater than 0 enhanced anti-cancer activity, about 0 neutral, below 0 antagonist): −0.10
Cholesterol-free [1, 24]: 1.075
Complete [1, 6]: 0.9761
Cholesterol-free media + simvastatin (0.04 μM) [2, 5]: 0.7436
Complete Media [2, 6]: 1.133
Difference [2, 12]: 0.39

CCCCOC(=O)c1ccc(N)cc1 [Butamben]
Difference [1, 23]: −0.20
Cholesterol-free [1, 3]: 1.171
Complete ([1]; NCI-H292 cells, complete media): 0.9712
Cholesterol-free media + simvastatin (0.04 μM) [2, 11]: 1.665
Complete Media [2, 19]: 1.081
Difference [2, 7]: −0.58

CCc1ccc(Cc2ccc3c(c2)[C@]2(OC3)O[C@H](CO)[C@@H](O)[C@H](O)[C@H]2O)cc1 [Tofogliflozin (hydrate)]
Cholesterol-free [1, 3]: 1.411
Complete ([1]; NCI-H292 cells, complete media): 1.03
Difference [1, 4]: −0.38
Cholesterol-free media + simvastatin (0.04 μM) [2, 13]: 0.9605
Complete Media [2, 14]: 1.04
Difference [2, 12]: 0.08

CC[C@H](C)[C@@H]1NC(=O)[C@H](Cc2ccc(O)cc2)NC(=O)[C@@H](N)CSSC[C@@H](C(=O)N2CCC[C@H]2C(=O)N[C@@H](CC(C)C)C(=O)NCC(N)=O)NC(=O)[C@H](CC(N)=O)NC(=O)[C@H](CCC(N)=O)NC1=O [Oxytocin]
Cholesterol-free [1, 3]: 1.585
Complete ([1]; NCI-H292 cells, complete media): 1.211
Difference ([1]; complete vs cholesterol-free media, […]): −0.37
Cholesterol-free media + simvastatin (0.04 μM) [2, 5]: 1.057
Complete Media [2, 6]: 0.9051
Difference [2, 20]: −0.15

CC(C)(C)CC(C)(C)c1ccc(OCCOCC[N+](C)(C)Cc2ccccc2)cc1 [Benzethonium chloride]
Cholesterol-free [1]: 0.07505
Complete [1]: 0.2197
Difference [1]: 0.14
Cholesterol-free media + simvastatin (0.04 μM) [2]: 0.6785
Complete Media [2]: 0.4348
Difference [2]: −0.24
